Here are results for 17 compounds from US20260159512A1, “BCAT2 INHIBITORS” (AGIOS PHARMACEUTICALS, INC., priority 2021, published 2026).

Holding throughout (conditions): average where tested multiple times
For test [1], the target named is T1, hBCAT1 (Homo sapiens, UniProt P54687).
T1 sequence (P54687 1-386): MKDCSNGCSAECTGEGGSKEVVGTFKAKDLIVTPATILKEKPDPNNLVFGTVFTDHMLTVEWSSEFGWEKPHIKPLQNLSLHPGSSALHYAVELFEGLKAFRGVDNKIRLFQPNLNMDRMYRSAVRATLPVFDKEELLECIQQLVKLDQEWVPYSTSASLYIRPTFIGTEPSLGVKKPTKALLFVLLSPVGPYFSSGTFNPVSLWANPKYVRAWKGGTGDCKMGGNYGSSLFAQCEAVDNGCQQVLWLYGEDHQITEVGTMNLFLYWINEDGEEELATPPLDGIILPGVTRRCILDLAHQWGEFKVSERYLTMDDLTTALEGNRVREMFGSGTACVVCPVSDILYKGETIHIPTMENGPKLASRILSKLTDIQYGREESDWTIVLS
Nature of the test: BCAT1 in vitro enzyme inhibition assay (resazurin/diaphorase-coupled fluorescence). It counts as biochemical. The method, boiled down: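 Human BCAT1 activity read by resazurin/diaphorase-coupled fluorescence. Compounds added from 50× DMSO stocks at 1:50, giving 10-point 3-fold titrations from 100 μM top final concentration. Run in technical duplicate; repeat tests averaged.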
On the technique in general: Resazurin is reduced to fluorescent resorufin, in cell work by metabolically active cells.

Test [2] concerns the target T2, BCAT2 (Homo sapiens, UniProt O15382).
T2 sequence (O15382 28-392): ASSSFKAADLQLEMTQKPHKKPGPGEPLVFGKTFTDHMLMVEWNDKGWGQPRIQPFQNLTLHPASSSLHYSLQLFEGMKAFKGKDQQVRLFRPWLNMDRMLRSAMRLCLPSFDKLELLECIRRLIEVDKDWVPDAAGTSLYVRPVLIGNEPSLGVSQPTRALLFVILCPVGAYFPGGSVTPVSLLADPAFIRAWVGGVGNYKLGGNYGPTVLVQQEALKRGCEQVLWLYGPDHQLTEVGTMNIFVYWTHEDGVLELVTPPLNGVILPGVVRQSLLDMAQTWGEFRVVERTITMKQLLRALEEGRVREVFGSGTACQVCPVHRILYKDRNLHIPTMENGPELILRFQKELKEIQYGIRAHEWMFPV
Nature of the test: BCAT2 in vitro cell inhibition using engineered A549 cells (KMV cell assay, 13C6-KMV by LC-MS/MS). Also on record: The result was an engineered A549 cell line that expressed endogenous BCAT2; endogenous in cells; host or cells: A549 cells with MUT and BCAT1 knocked out by CRISPR/CAS9; key to BCAT2 Cell Inhibition: A: less than or equal to 0.100 μM; B: greater than 0.100 and less than or equal to 0.500 μM; C: greater than 0.500 and less than or equal to 1.000 μM; d: greater than 1.000 μM; E: no fit. It counts as cell-based.

Test [3] has as its target T2, BCAT2. Nature of the test: BCAT2 in vitro enzyme inhibition assay (resazurin/diaphorase-coupled fluorescence). It is filed as biochemical. The method, boiled down: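 Coupled fluorescence readout: glutamate formed from L-leucine/α-ketoglutarate transamination drives GDH/NAD/diaphorase reduction of resazurin (Ex 540/Em 590). Human BCAT2 was first exposed 1 h at room temperature to compound, top final 100 μM in 3-fold, 10-point series; substrate reaction ran 1 h before SDS quench, in technical duplicate with DMSO max and enzyme-free min controls.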

As a reminder, the IC50 is the point on the concentration scale where inhibition reaches its midpoint. `O=C(N[C@H]1CCC[C@@H](n2c(-c3ccccn3)nc3cnc(-c4ncco4)cc32)C1)c1ccc(Br)s1` [Example 5, 5-bromo-N-((1S,3R)-3-(6-(oxazol-2-yl)-2-(pyridin-2-yl)-1H-imidazo[4,5-c]pyridin-1-yl)cyclohexyl)thiophene-2-carboxamide]: the IC50 is below 500 nM in test [1], at most 100 nM in test [2] and at most 100 nM in test [3].
For `O=C(N[C@H]1CCC[C@@H](n2c(-c3ccccc3F)nc3cnc(-c4ccc(F)cn4)cc32)C1)c1ncc(Cl)s1` [Example 170, 5-chloro-N-((1S,3R)-3-(2-(2-fluorophenyl)-6-(5-fluoropyridin-2-yl)-1H-imidazo[4,5-c]pyridin-1-yl)cyclohexyl)thiazole-2-carboxamide], the IC50 in test [1] is below 500 nM; in test [2], at most 100 nM; in test [3], at most 100 nM.
As for `CC1(O)[C@@H](NC(=O)c2ncc(Cl)s2)CCC[C@H]1n1c(-c2ccccc2F)nc2cnc(-c3nc[nH]n3)cc21` (single isomer, unassigned) [Example 233], the values for the IC50 in test [1], in test [2] and in test [3] were below 500 nM, 100 to 500 nM and at most 100 nM, respectively.
With `O=C(N[C@H]1CCC[C@@H](n2c(-c3ccccc3O)nc3cnc(-n4nccn4)cc32)C1)c1ncc(Cl)s1` [Example 363, 5-chloro-N-((1S,3R)-3-(2-(2-hydroxyphenyl)-6-(2H-1,2,3-triazol-2-yl)-1H-imidazo[4,5-c]pyridin-1-yl)cyclohexyl)thiazole-2-carboxamide], the IC50 in test [1] is below 500 nM; in test [2], at most 100 nM; in test [3], at most 100 nM.
On to `O=C(N[C@H]1CCC[C@@H](n2c(-c3ncccc3F)nc3cnc(-n4nccn4)cc32)C1)c1ncc(Br)s1` [Example 22, 5-bromo-N-((1S,3R)-3-(2-(3-fluoropyridin-2-yl)-6-(2H-1,2,3-triazol-2-yl)-1H-imidazo[4,5-c]pyridin-1-yl)cyclohexyl)thiazole-2-carboxamide], for which the half-maximal inhibitory concentration (IC50) is below 500 nM in test [1], at most 100 nM in test [2] and at most 100 nM in test [3].
For `CC(C)(C)Cc1nc2cnc(-n3nccn3)cc2n1[C@@H]1CCC[C@H](NC(=O)c2ccc(Cl)s2)[C@H]1O` [Example 387, 5-chloro-N-((1S,2R,3R)-2-hydroxy-3-(2-neopentyl-6-(2H-1,2,3-triazol-2-yl)-1H-imidazo[4,5-c]pyridin-1-yl)cyclohexyl)thiophene-2-carboxamide], the figures for the IC50 in test [1], in test [2] and in test [3] were below 500 nM, at most 100 nM and at most 100 nM, respectively.
Take `O=C(NC1CC(O)CC(n2c(-c3ccccc3F)nc3cnc(-n4nccn4)cc32)C1)c1ncc(C(F)F)s1` (stereo not drawn) [Example 106, 5-(difluoromethyl)-N-(3-(2-(2-fluorophenyl)-6-(2H-1,2,3-triazol-2-yl)-1H-imidazo[4,5-c]pyridin-1-yl)-5-hydroxycyclohexyl)thiazole-2-carboxamide]: the concentration for half-maximal inhibition (IC50) in test [1] is below 500 nM; in test [2], at most 100 nM; in test [3], at most 100 nM.
As for `COCc1nc2cnc(-c3nc[nH]n3)cc2n1[C@@H]1CCC[C@H](NC(=O)c2ncc(Cl)s2)C1` [Example 91, 5-chloro-N-[(1S,3R)-3-[2-(methoxymethyl)-6-(1H-1,2,4-triazol-3-yl)imidazo[4,5-c]pyridin-1-yl]cyclohexyl]thiazole-2-carboxamide], the IC50 was 1000 to 5000 nM in test [1], above 1000 nM in test [2] and 100 to 500 nM in test [3].
As to `O=C(N[C@H]1CCC[C@@H](n2c(-c3ccccc3F)nc3cnc(-c4nc[nH]n4)cc32)[C@@H]1O)c1ccc(Cl)s1` [Example 399, 5-chloro-N-((1S,2R,3R)-3-(2-(2-fluorophenyl)-6-(1H-1,2,4-triazol-3-yl)-1H-imidazo[4,5-c]pyridin-1-yl)-2-hydroxycyclohexyl)thiophene-2-carboxamide], the IC50 in test [1] was below 500 nM; in test [2], at most 100 nM; in test [3], at most 100 nM.
Regarding `O=C(NC1COCC(n2c(-c3ccccc3F)nc3cnc(-n4nccn4)cc32)C1)c1ncc(C(F)F)s1` (single isomer, unassigned) [Example 143, 5-(difluoromethyl)-N-(5-(2-(2-fluorophenyl)-6-(2H-1,2,3-triazol-2-yl)-1H-imidazo[4,5-c]pyridin-1-yl)tetrahydro-2H-pyran-3-yl)thiazole-2-carboxamide], the IC50 was above 5000 nM in test [1], 100 to 500 nM in test [2] and 100 to 500 nM in test [3].
On to `CO[C@H]1C[C@H](NC(=O)c2ncc(Cl)s2)C[C@H](n2c(-c3ccccc3F)nc3cnc(N4CCC[C@H]4CO)cc32)C1` [Example 429, 5-chloro-N-((1R,3S,5S)-3-(2-(2-fluorophenyl)-6-((S)-2-(hydroxymethyl)pyrrolidin-1-yl)-1H-imidazo[4,5-c]pyridin-1-yl)-5-methoxycyclohexyl)thiazole-2-carboxamide], for which the IC50 is 500 to 1000 nM in test [1], at most 100 nM in test [2] and at most 100 nM in test [3].
As for `CC(C)Cc1nc2cnc(-c3ccccc3CC#N)cc2n1[C@@H]1CCC[C@H](NC(=O)c2ccc(Cl)s2)C1` [Example 332, 5-chloro-N-((1S,3R)-3-(6-(2-(cyanomethyl)phenyl)-2-isobutyl-1H-imidazo[4,5-c]pyridin-1-yl)cyclohexyl)thiophene-2-carboxamide], the 50% inhibitory concentration (IC50) in test [1] was in the range of 500 to 1000 nM; in test [2], 500 to 1000 nM; in test [3], 100 to 500 nM.
`CC(C)Cc1nc2cnc(-c3ccn(C(F)F)n3)cc2n1[C@@H]1CC(O)C[C@H](NC(=O)c2ncc(Cl)s2)C1` (stereo in doubt) [Example 213, 5-chloro-N-((1R,3S,5R)-3-(6-(1-(difluoromethyl)-1H-pyrazol-3-yl)-2-isobutyl-1H-imidazo[4,5-c]pyridin-1-yl)-5-hydroxycyclohexyl)thiazole-2-carboxamide]: the IC50 is 500 to 1000 nM in test [1], 500 to 1000 nM in test [2] and at most 100 nM in test [3].
Take `CC(C)Cc1nc2cnc(-c3ccc4ccoc4c3)cc2n1[C@@H]1CCC[C@H](NC(=O)c2ncc(Cl)s2)C1` [Example 319, N-((1S,3R)-3-(6-(benzofuran-6-yl)-2-isobutyl-1H-imidazo[4,5-c]pyridin-1-yl)cyclohexyl)-5-chlorothiazole-2-carboxamide]: the figures for the IC50 in test [1] and in test [3] were 1000 to 5000 nM and 100 to 500 nM, respectively. For the same compound, in test [2], the “BCAT2 Cell Inhibition” value is given as “E”.
On to `O=C(N[C@H]1CCC[C@@H](n2c(-n3cccn3)nc3cnc(-n4nccn4)cc32)C1)c1ncc(C(F)F)s1` [Example 56, N-((1S,3R)-3-(2-(1H-pyrazol-1-yl)-6-(2H-1,2,3-triazol-2-yl)-1H-imidazo[4,5-c]pyridin-1-yl)cyclohexyl)-5-(difluoromethyl)thiazole-2-carboxamide], for which the IC50 in test [1] was 1000 to 5000 nM; in test [2] it was 100 to 500 nM; in test [3], at most 100 nM.
As to `O=C(NC1CCCCC(n2c(-c3ccccn3)nc3cnc(-n4nccn4)cc32)C1)c1ncc(C(F)F)s1` (stereo not drawn) [Example 4, 5-(difluoromethyl)-N-(3-(2-(pyridin-2-yl)-6-(2H-1,2,3-triazol-2-yl)-1H-imidazo[4,5-c]pyridin-1-yl)cycloheptyl)thiazole-2-carboxamide], the IC50 in test [1] was above 5000 nM; in test [2] it was 500 to 1000 nM; in test [3], at most 100 nM.
Regarding `CN1CC(NC(=O)c2ccc(Br)s2)CC(n2c(-c3ccccc3F)nc3cnc(-c4ncco4)cc32)C1` (stereo not drawn) [Example 117, 5-bromo-N-(5-(2-(2-fluorophenyl)-6-(oxazol-2-yl)-1H-imidazo[4,5-c]pyridin-1-yl)-1-methylpiperidin-3-yl)thiophene-2-carboxamide], the IC50 was 500 to 1000 nM in test [1], at most 100 nM in test [2] and at most 100 nM in test [3].
